From US20120202801A1, “METHODS FOR TREATING BREAST CANCER” (priority 2009, published 2012) come the findings set out here.

The term EC50 denotes the concentration that produces a half-maximal response.

Structures are written as SMILES.

The test relates to hypoxia-inducible endogenous VEGF expression. As to the kind of experiment: Hypoxia-inducible endogenous VEGF expression ELISA in HeLa cells, dose-response (EC50, Table 3). The note with it: Homo sapiens, read-out: ELISA EC50 μM.
In the case of `CN1CCCC(COc2ccc(C3c4[nH]c5ccc(Cl)cc5c4CCN3C(=O)Oc3ccccc3Cl)cc2)C1` (centres unmarked) [Compound 976], the EC50 lay within 0.04 to 0.2 µM.
Turning to `CN1CCN(CCCCCCOc2ccc(C3c4[nH]c5ccc(Cl)cc5c4CCN3C(=O)Oc3ccc(Cl)cc3)cc2)CC1` (centres unmarked) [Compound 788], the concentration giving a half-maximal response (EC50) is 0.008 to 0.04 µM.
To `CN(C)CCCOc1ccc(C2c3[nH]c4ccc(Cl)cc4c3CCN2C(=O)Oc2ccccc2)cc1` (centres unmarked) [Compound 493] belongs 0.04 to 0.2 µM; to `COCCN(C)CC(O)COc1ccc(C2c3[nH]c4ccc(Cl)cc4c3CCN2C(=O)Oc2ccc(F)cc2)cc1` (centres unmarked) [Compound 936], less than 0.008 µM; to `Cc1ccc(OC(=O)N2CCc3c([nH]c4ccc(Cl)cc34)C2c2ccc(OCC3CCCN(C)C3)cc2)cc1` (centres unmarked) [Compound 951], 0.008 to 0.04 µM.
To `O=C(Oc1ccc(F)cc1)N1CCc2c([nH]c3ccc(Cl)cc23)C1c1ccc(OCCCCCCNCCO)cc1` (centres unmarked) [Compound 772] belongs less than 0.008 µM.
The figure for `O=C(Oc1ccc(Cl)cc1)N1CCc2c([nH]c3ccc(Cl)cc23)C1c1ccc(OCCCN2CCN(CCO)CC2)cc1` (centres unmarked) [Compound 942] is 0.008 to 0.04 µM; for `O=C(Oc1ccc(Cl)cc1)N1CCc2c([nH]c3ccc(Cl)cc23)C1c1ccc(OCCN2CCOCC2)cc1` (centres unmarked) [Compound 331] it is more than 1 µM; for `O=C(Oc1ccc(F)cc1)N1CCc2c([nH]c3ccc(Cl)cc23)C1c1ccc(OCCCCCCN2CCCCC2)cc1` (centres unmarked) [Compound 777] it is less than 0.008 µM.
In the case of `CN1CCN(CC(O)COc2ccc(C3c4[nH]c5ccc(Cl)cc5c4CCN3C(=O)Oc3ccc(Cl)cc3)cc2)CC1` (centres unmarked) [Compound 970], the EC50 fell in the range of 0.008 to 0.04 µM.
The figure for `CN1CCN(CCCCCCOc2ccc(C3c4[nH]c5ccc(Cl)cc5c4CCN3C(=O)Oc3ccc(F)cc3)cc2)CC1` (centres unmarked) [Compound 778] is less than 0.008 µM.
The figure for `CN(C)CCCOc1ccc(C2c3[nH]c4ccc(Cl)cc4c3CCN2C(=O)Oc2ccc(Cl)cc2)cc1` (centres unmarked) [Compound 479] is 0.04 to 0.2 µM.
To `O=C(Oc1ccc(Cl)cc1)N1CCc2c([nH]c3ccc(Cl)cc23)C1c1ccc(OCCCN2CCCC2)cc1` (centres unmarked) [Compound 429] belongs less than 0.008 µM; to `O=C(Oc1ccc(F)cc1)N1CCc2c([nH]c3ccc(Cl)cc23)C1c1ccc(OCCCCNCCCn2ccnc2)cc1` (centres unmarked) [Compound 741], 0.04 to 0.2 µM; to `O=C(Oc1ccc(F)cc1)N1CCc2c([nH]c3ccc(Cl)cc23)C1c1ccc(OCCCN2CCOCC2)cc1` (centres unmarked) [Compound 989], less than 0.008 µM.
As to `CN1CCN(CC(O)COc2ccc(C3c4[nH]c5ccc(Cl)cc5c4CCN3C(=O)Oc3ccc(F)cc3)cc2)CC1` (centres unmarked) [Compound 963], the EC50 was 0.008 to 0.04 µM.
The figure for `O=C(Oc1ccc(F)cc1)N1CCc2c([nH]c3ccc(Cl)cc23)C1c1ccc(OCCCCCCN2CCCC2)cc1` (centres unmarked) [Compound 773] is less than 0.008 µM; for `O=C(Oc1ccc(F)cc1)N1CCc2c([nH]c3ccc(Cl)cc23)C1c1ccc(OCCCCCCN2CCOCC2)cc1` (centres unmarked) [Compound 776] it is less than 0.008 µM.
As for `CC(C)NCC(O)COc1ccc(C2c3[nH]c4ccc(Cl)cc4c3CCN2C(=O)Oc2ccc(Cl)cc2)cc1` (centres unmarked) [Compound 977], the EC50 lay within 0.04 to 0.2 µM.
The figure for `O=C(CN1CCOCC1)Nc1ccc(C2c3[nH]c4ccc(Cl)cc4c3CCN2C(=O)Oc2ccc(Cl)cc2)cc1` (centres unmarked) [Compound 454] is 0.008 to 0.04 µM; for `O=C(Oc1ccc(Cl)cc1)N1CCc2c([nH]c3ccc(Cl)cc23)C1c1ccc(OCCCCN2CCCCC2)cc1` (centres unmarked) [Compound 703] it is 0.008 to 0.04 µM.
For `O=C(Oc1ccc(F)cc1)N1CCc2c([nH]c3ccc(Cl)cc23)C1c1ccc(OCCCCN2CCCC2)cc1` (centres unmarked) [Compound 736], the EC50 was less than 0.008 µM.
For `CC(=O)N1CCN(CC(O)COc2ccc(C3c4[nH]c5ccc(Cl)cc5c4CCN3C(=O)Oc3ccc(F)cc3)cc2)CC1` (centres unmarked) [Compound 637], the EC50 is less than 0.008 µM.
As to `COc1ccc(OC(=O)N2CCc3c([nH]c4ccc(Cl)cc34)C2c2ccc(OCC3CCCN(C)C3)cc2)cc1` (centres unmarked) [Compound 981], the EC50 lay within 0.04 to 0.2 µM.
For `Cc1ccc(OC(=O)N2CCc3c([nH]c4ccc(Cl)cc34)[C@@H]2c2ccc(OCCC(O)CN3CCOCC3)cc2)cc1` (some centres unmarked) [Compound 1302], the EC50 lay in the range of 0.04 to 0.2 µM.
To `CN(C)CCN(C)CCCOc1ccc([C@H]2c3[nH]c4ccc(Cl)cc4c3CCN2C(=O)Oc2ccc(Cl)cc2)cc1` [Compound 1611] belongs less than 0.008 µM.
To `CN1CCN(CCCCOc2ccc(C3c4[nH]c5ccc(Cl)cc5c4CCN3C(=O)Oc3ccc(Cl)cc3)cc2)CC1` (centres unmarked) [Compound 704] belongs 0.04 to 0.2 µM; to `O=C(Oc1ccc(Cl)cc1)N1CCc2c([nH]c3ccc(Cl)cc23)C1c1ccc(OCCCCCCNCCO)cc1` (centres unmarked) [Compound 782], less than 0.008 µM; to `CC(=O)N1CCN(CCCOc2ccc(C3c4[nH]c5ccc(Cl)cc5c4CCN3C(=O)Oc3ccc(F)cc3)cc2)CC1` (centres unmarked) [Compound 988], less than 0.008 µM.
To `CN(C)CC(=O)Nc1ccc(C2c3[nH]c4ccc(Cl)cc4c3CCN2C(=O)Oc2ccc(Cl)cc2)cc1` (centres unmarked) [Compound 491] belongs 0.04 to 0.2 µM; to `O=C(Oc1ccc(Cl)cc1)N1CCc2c([nH]c3ccc(Cl)cc23)C1c1ccc(OCC(O)CN2CCSCC2)cc1` (centres unmarked) [Compound 923], less than 0.008 µM.
For `CN(C)CCCOc1ccc(C2c3[nH]c4ccc(Cl)cc4c3CCN2C(=O)Oc2ccc(Br)cc2)cc1` (centres unmarked) [Compound 468], the EC50 is 0.008 to 0.04 µM.
The figure for `CC(C)NCCCCCCOc1ccc(C2c3[nH]c4ccc(Cl)cc4c3CCN2C(=O)Oc2ccc(Cl)cc2)cc1` (centres unmarked) [Compound 784] is less than 0.008 µM; for `O=C(Oc1ccc(F)cc1)N1CCc2c([nH]c3ccc(Cl)cc23)C1c1ccc(OCCCCCCNCCCn2ccnc2)cc1` (centres unmarked) [Compound 779] it is 0.04 to 0.2 µM; for `CC(=O)N1CCN(CC(O)COc2ccc(C3c4[nH]c5ccc(Cl)cc5c4CCN3C(=O)Oc3ccc(Cl)cc3)cc2)CC1` (centres unmarked) [Compound 415] it is less than 0.008 µM.
On to `COCCCNCCCCOc1ccc(C2c3[nH]c4ccc(Cl)cc4c3CCN2C(=O)Oc2ccc(Cl)cc2)cc1` (centres unmarked) [Compound 701], for which the EC50 fell in the range of 0.008 to 0.04 µM.
As to `CCN(CC)CC(O)COc1ccc(C2c3[nH]c4ccc(Cl)cc4c3CCN2C(=O)Oc2ccc(Cl)cc2)cc1` (centres unmarked) [Compound 938], the EC50 was less than 0.008 µM.
The figure for `CCN(CC)CCCOc1ccc(C2c3[nH]c4ccc(Cl)cc4c3CCN2C(=O)Oc2ccc(Cl)cc2)cc1` (centres unmarked) [Compound 946] is 0.008 to 0.04 µM; for `COc1ccc(C2c3[nH]c4ccc(Cl)cc4c3CCN2C(=O)Oc2ccc(Cl)cc2)cc1` (centres unmarked) [Compound #10] it is less than 0.008 µM.
With `O=C(Oc1ccc(Cl)cc1)N1CCc2c([nH]c3ccc(Cl)cc23)C1c1ccc(OCCCN2CCOCC2)cc1` (centres unmarked) [Compound 894], the EC50 is less than 0.008 µM.
The figure for `O=C(Oc1ccc(F)cc1)N1CCc2c([nH]c3ccc(Cl)cc23)C1c1ccc(OCC(O)CN2CCOCC2)cc1` (centres unmarked) [Compound 638] is less than 0.008 µM; for `COc1ccc(OC(=O)N2CCc3c([nH]c4ccc(Cl)cc34)C2c2ccc(OCCCN(C)C)cc2)cc1` (centres unmarked) [Compound 501] it is 0.04 to 0.2 µM.
In the case of `COCCN(C)CCCOc1ccc(C2c3[nH]c4ccc(Cl)cc4c3CCN2C(=O)Oc2ccc(F)cc2)cc1` (centres unmarked) [Compound 992], the EC50 is 0.04 to 0.2 µM.
The figure for `COCCN(CCOC)CC(O)COc1ccc(C2c3[nH]c4ccc(Cl)cc4c3CCN2C(=O)Oc2ccc(Cl)cc2)cc1` (centres unmarked) [Compound 918] is less than 0.008 µM.
To `CN1CCCC(COc2ccc(C3c4[nH]c5ccc(Cl)cc5c4CCN3C(=O)Oc3ccc(F)cc3)cc2)C1` (centres unmarked) [Compound 932] belongs less than 0.008 µM.
With `NCC(O)COc1ccc(C2c3[nH]c4ccc(Cl)cc4c3CCN2C(=O)Oc2ccc(Cl)cc2)cc1` (centres unmarked) [Compound 846], the EC50 lay within 0.04 to 0.2 µM.
Regarding `CN1CCCC(COc2ccc(C3c4[nH]c5ccc(Cl)cc5c4CCN3C(=O)Oc3ccccc3)cc2)C1` (centres unmarked) [Compound 952], the EC50 fell in the range of 0.008 to 0.04 µM.
To `O=C(Oc1ccc(Cl)cc1)N1CCc2c([nH]c3ccc(Cl)cc23)C1c1ccc(OCCCCN2CCOCC2)cc1` (centres unmarked) [Compound 702] belongs 0.008 to 0.04 µM; to `O=C(Oc1ccc(F)cc1)N1CCc2c([nH]c3ccc(Cl)cc23)C1c1ccc(OCC(O)CN2CCSCC2)cc1` (centres unmarked) [Compound 925], less than 0.008 µM.
Turning to `O=C(Oc1ccc(Cl)cc1)N1CCc2c([nH]c3ccc(Cl)cc23)C1c1ccc(OCCCCCCNCCCn2ccnc2)cc1` (centres unmarked) [Compound 789], the EC50 lay within 0.04 to 0.2 µM.
To `CC(C)NCCCOc1ccc(C2c3[nH]c4ccc(Cl)cc4c3CCN2C(=O)Oc2ccc(Cl)cc2)cc1` (centres unmarked) [Compound 953] belongs 0.008 to 0.04 µM.
`O=C(Oc1ccc(Cl)cc1)N1CCc2c([nH]c3ccc(Cl)cc23)C1c1ccc(OCC(O)CN2CCOCC2)cc1` (centres unmarked) [Compound 904]: the EC50 was less than 0.008 µM.
To `Cc1ccc(OC(=O)N2CCc3c([nH]c4ccc(Cl)cc34)C2c2ccc(OCCCN(C)C)cc2)cc1` (centres unmarked) [Compound 502] belongs 0.04 to 0.2 µM; to `O=C(Oc1ccc(Cl)cc1)N1CCc2c([nH]c3ccc(Cl)cc23)C1c1ccc(OCCCCCCN2CCCCC2)cc1` (centres unmarked) [Compound 787], less than 0.008 µM.
With `COCCN(CCOC)CC(O)COc1ccc(C2c3[nH]c4ccc(Cl)cc4c3CCN2C(=O)Oc2ccc(F)cc2)cc1` (centres unmarked) [Compound 913], the EC50 is less than 0.008 µM.
For the compound `COCCCNCCCCOc1ccc(C2c3[nH]c4ccc(Cl)cc4c3CCN2C(=O)Oc2ccc(F)cc2)cc1` (centres unmarked) [Compound 737], the EC50 lay in the range of 0.008 to 0.04 µM.
Take `CN1CCN(CCCOc2ccc(C3c4[nH]c5ccc(Cl)cc5c4CCN3C(=O)Oc3ccc(Cl)cc3)cc2)CC1` (centres unmarked) [Compound 961]: the EC50 is 0.008 to 0.04 µM.
To `O=C1NC2CSC(CCCCC(=O)OCCOc3ccc(C4c5[nH]c6ccc(Cl)cc6c5CCN4C(=O)Oc4ccc(Cl)cc4)cc3)C2N1` (centres unmarked) [Compound 544] belongs less than 0.008 µM; to `COCCN(CCCOc1ccc(C2c3[nH]c4ccc(Cl)cc4c3CCN2C(=O)Oc2ccc(F)cc2)cc1)CCOC` (centres unmarked) [Compound 990], less than 0.008 µM; to `CC(=O)N1CCN(CCCOc2ccc(C3c4[nH]c5ccc(Cl)cc5c4CCN3C(=O)Oc3ccc(Cl)cc3)cc2)CC1` (centres unmarked) [Compound 903], less than 0.008 µM.
To `COCCCNCCCCCCOc1ccc(C2c3[nH]c4ccc(Cl)cc4c3CCN2C(=O)Oc2ccc(F)cc2)cc1` (centres unmarked) [Compound 775] belongs less than 0.008 µM; to `O=C(Oc1ccc(F)cc1)N1CCc2c([nH]c3ccc(Cl)cc23)C1c1ccc(OCCCCN2CCCCC2)cc1` (centres unmarked) [Compound 739], less than 0.008 µM.
